Experimental data published in PubChem BioAssay (NCI).
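Grown in 96-well plates, cells were treated for 48 hours with each compound at five concentrations. Insufficient inhibition: endpoint recorded as highest concentration tested. At the GI50, growth is halved. TGI: concentration producing complete growth inhibition.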

What was measured:
Assay in all cases: NCI anticancer screen, dose series, 48 h
K-562 leukemia = test system: K-562 leukemia
CAKI-1 renal = test system: CAKI-1 renal
SK-MEL-28 melanoma = test system: SK-MEL-28 melanoma
U251 CNS = test system: U251 CNS
OVCAR-4 ovarian = test system: OVCAR-4 ovarian
UACC-257 melanoma = test system: UACC-257 melanoma
MALME-3M melanoma = test system: MALME-3M melanoma
OVCAR-5 ovarian = test system: OVCAR-5 ovarian
HOP-62 NSCLC = test system: HOP-62 NSCLC
HCT-116 colon = test system: HCT-116 colon

| Structure (SMILES) | TGI (K-562 leukemia) | TGI (CAKI-1 renal) | TGI (SK-MEL-28 melanoma) | TGI (U251 CNS) | TGI (OVCAR-4 ovarian) | TGI (UACC-257 melanoma) | TGI (MALME-3M melanoma) | TGI (OVCAR-5 ovarian) | TGI (HOP-62 NSCLC) | TGI (HCT-116 colon) | GI50 (K-562 leukemia) | GI50 (CAKI-1 renal) | GI50 (U251 CNS) | GI50 (UACC-257 melanoma) | GI50 (OVCAR-5 ovarian) | GI50 (HCT-116 colon) | GI50 (HOP-62 NSCLC) |
| --- | --- | --- | --- | --- | --- | --- | --- | --- | --- | --- | --- | --- | --- | --- | --- | --- | --- |
| COc1cc(C(=O)CC2(O)C(=O)Nc3c(Cl)cc(Cl)cc32)ccc1O (stereo not drawn) | > 100 µM | > 100 µM | > 100 µM | > 100 µM | > 100 µM | > 100 µM | > 100 µM | > 100 µM | > 100 µM | – | – | – | – | – | – | – | – |
| CC1=Nn2c(nnc2-c2ccc(N)cc2)NC(C)(C)C1 | > 100 µM | > 100 µM | > 100 µM | > 100 µM | > 100 µM | > 100 µM | > 100 µM | > 100 µM | > 100 µM | – | – | – | – | – | – | – | – |
| C[C@@H]1C[C@@]2(O[C@@H]2C)C(=O)O[C@@H]2CCN3CC=C(COC(=O)[C@]1(C)O)[C@H]23 | > 100 µM | > 100 µM | > 100 µM | > 100 µM | > 100 µM | > 100 µM | > 100 µM | > 100 µM | – | > 100 µM | – | – | – | – | – | – | – |
| CSC1C(=O)c2ccccc2/C(=N/Nc2nc3ccccc3s2)C1C (stereo not drawn) | 4.55 µM | 20.1 µM | – | 15.6 µM | – | 18.9 µM | – | 29.6 µM | > 50 µM | 28.8 µM | 1700 nM | 8.85 µM | 7.66 µM | 8.87 µM | 14.5 µM | 4.67 µM | 14.4 µM |
| N#CC(C#N)=C1SCC(=O)CS1 | > 100 µM | > 100 µM | – | > 100 µM | > 100 µM | > 100 µM | > 100 µM | > 100 µM | > 100 µM | > 100 µM | – | – | – | – | – | – | – |
| C/C(=N\O)C(CN1CCCCC1)C(c1ccccc1)c1c(O)c2ccccc2oc1=O (stereo not drawn) | > 10 µM | > 100 µM | > 100 µM | – | > 100 µM | > 100 µM | > 100 µM | > 100 µM | > 100 µM | > 100 µM | – | – | – | – | – | – | – |
| COc1cc([C@@H]2OC(=O)C3C2C(=O)O[C@H]3c2cc(OC)c(OC)c(OC)c2)cc(OC)c1OC (stereo partly drawn) | > 100 µM | – | > 100 µM | > 100 µM | > 100 µM | > 100 µM | – | – | > 100 µM | > 100 µM | – | – | – | – | – | – | – |
| Cc1cc(=O)oc2cc(OCc3nc4ccccc4c(=O)[nH]3)ccc12 | > 100 µM | > 100 µM | > 100 µM | > 100 µM | > 100 µM | – | > 100 µM | > 100 µM | > 100 µM | > 100 µM | – | – | – | – | – | – | – |
| NC(CCSC(F)F)C(=O)O (stereo not drawn) | > 100 µM | > 100 µM | > 100 µM | > 100 µM | > 100 µM | – | > 100 µM | > 100 µM | > 100 µM | > 100 µM | – | – | – | – | – | – | – |
| Cc1cccc2c1C(=O)OC2(C)c1cccc2ccccc12 (stereo not drawn) | > 100 µM | > 100 µM | > 100 µM | 73.8 µM | 67.4 µM | > 100 µM | > 100 µM | > 100 µM | – | – | – | – | – | – | – | – | – |
| O=C1c2c(nc3ccccc3c2-c2ccccc2)CN1Nc1ccccc1 | > 100 µM | > 100 µM | – | – | > 100 µM | > 100 µM | > 100 µM | > 100 µM | > 100 µM | > 100 µM | – | – | – | – | – | – | – |
| Cn1c(=O)c(C(=O)NC(=O)OCc2ccccc2)cn(CCSCCOC(=O)NCCCCCCNC(=O)OCCSCCn2cc(C(=O)NC(=O)OCc3ccccc3)c(=O)n(C)c2=O)c1=O | > 100 µM | – | > 100 µM | > 100 µM | > 100 µM | – | > 100 µM | > 100 µM | > 100 µM | > 100 µM | – | – | – | – | – | – | – |
